According to US20180311342A1, “IMMUNOSTIMULATING AGENT” (AJINOMOTO CO., INC., priority 2017, published 2018):

Columns and labels:
Type in all cases: in vivo, BALB/c mice
[1] = tested on: anti-OVA-specific IgG1 subclass antibody; test: Adjuvant activity test: anti-OVA-specific IgG1 subclass antibody in serum of OVA-immunized mice (ELISA); settings: after secondary immunization, serum 2 weeks later; OVA 5 μg + compound 0.256 μmol in 5% αCD-added saline (Addavax mixed with saline at 1:1), dorsal-subcutaneous; compared to OVA single administration group
Description: (§1) 8-Week-old female BALB/c mice were divided into groups (N=6), and each group was primarily immunized by dorsal-subcutaneous administration of (1) ovalbumin (OVA) (5 μg) dissolved in saline as an antigen (OVA single administration group), (2) OVA 5 μg and Addavax™ (mixed with saline at 1:1) dissolved in saline (Addavax™ administration group) as positive control adjuvant, (3) OVA 5 μg and SZ137 0.256 μmol dissolved or dispersed in 5% α-cyclodextrin (hereinafter to be simply referred to as αCD)-added saline (SZ137 administration group), (4) OVA (5 μg) and SZ138 (0.256 μmol) dissolved or dispersed in 5% αCD-added saline (SZ138 administration group), (5) OVA (5 μg) and SZ142 (0.256 μmol) dissolved or dispersed in 5% αCD-added saline (SZ142 administration group), (6) OVA (5 μg) and SZ144 (0.256 μmol) dissolved or dispersed in 5% αCD-added saline (SZ144 administration group), (7) OVA (5 μg) and SZ145 (0.256 μmol) dissolved or dispersed in 5% αCD-added saline (SZ145 administration group), (8) OVA (5 μg) and SZ146 (0.256 μmol) dissolved or dispersed in 5% αCD-added saline (SZ146 administration group), (9) OVA (5 μg) and SZ147 (0.256 μmol) dissolved or dispersed in 5% αCD-added saline (SZ147 administration group), (10) OVA (5 μg) and SZ148 (0.256 μmol) dissolved or dispersed in 5% αCD-added saline (SZ148 administration group), each per mouse. Two week later, the secondary immunization was carried out by dorsal-subcutaneous administration of solutions or dispersions similar to those of the above-mentioned (1)-(10) again. Two weeks from the secondary immunization, the whole blood was extracted under anesthesia, and the obtained serum sample was measured for anti-OVA-specific IgG1 subclass antibody, anti-OVA-specific IgG2a subclass antibody, and anti-OVA-specific IgE antibody.
(§2) The measurement method of the anti-OVA-specific IgG1 subclass antibody and anti-OVA-specific IgG2a subclass antibody in Experimental Example 1 and the following Experimental Examples 2-10 is as follows.
(§3) To a 96 well plate was added 5 μg/ml OVA at 100 µl/well, and the mixture was incubated at 4° C. overnight. After incubation, the mixture was washed three times with 200 μl of PBS-T (PBS (phosphate buffered saline)+0.05% (v/v) Tween 20) per well, and blocked with 100 μl of 5% FCS (fetal calf serum)/PBS solution per well at room temperature for 1-2 hr. Thereafter, the mixture was washed three times with PBS-T (200 μl/well), a diluted serum sample (100 l/well) or the same amount of 5% FCS/PBS solution as a control was added, and the mixture was incubated at 37° C. for 1 hr. To calculate concentration of the antibody, the standard of an anti-OVA-specific IgG1 subclass antibody diluted with 2% FCS/PBS solution was added at 100 ng/ml, 50 ng/ml, 25 ng/ml, 12.5 ng/ml, 6.25 ng/ml, 3.125 ng/ml, 1.56 ng/ml, 0.781 ng/ml, 0.391 ng/ml, 0.195 ng/ml, 0.098 ng/ml, 0 ng/ml, per 1 well. When an anti-OVA-specific IgG2a subclass antibody was measured, the standard of an anti-OVA-specific IgG2a subclass antibody was added at 50 ng/ml, 25 ng/ml, 12.5 ng/ml, 6.25 ng/ml, 3.125 ng/ml, 1.56 ng/ml, 0.781 ng/ml, 0.391 ng/ml, 0.195 ng/ml, 0.098 ng/ml, 0.049 ng/ml, 0 ng/ml, per 1 well. Thereafter, similar to the samples, the mixture was washed five times with PBS-T (200 μl/well), a diluted biotinylated anti-mouse IgG1 antibody and IgG2a antibody were added (100 μl/well), and the mixture was incubated at 37° C. for 45 min. Thereafter, the mixture was washed five times with PBS-T (200 μl/well), a diluted anti-biotin-HRP antibody was added (100 μl/well), and the mixture was incubated at 37° C. for another 30 min. Thereafter, the mixture was washed five times with PBS-T (200 μl/well), TMB substrate solution was added (100 μl/well), and the mixture was incubated at room temperature for 10-15 min. Thereafter, a reaction quenching liquid (2N sulfuric acid solution) was added (50 l/well) to discontinue a color developing reaction, and the absorbance (OD Value=450 nm) was measured by a microplate reader. […]

[2] = tested on: anti-OVA-specific IgE antibody; test: Allergy inducing activity test: anti-OVA-specific IgE antibody in serum of OVA-immunized mice (DS mouse IgE ELISA (OVA) kit)
Description: as §1
The measurement method of the anti-OVA-specific IgE antibody in Experimental Example 1 and the following Experimental Examples 2-5, 8-10 is as follows.
DS mouse IgE ELISA (OVA) kit manufactured by DS Pharma Biomedical Co., Ltd. was used. The protocol is briefly shown below.
The serum sample and a standard reagent for drawing an analytical curve are diluted with a buffer and, after stirring, left standing at room temperature for 10 min. The sample and the standard solution are added to a plate bound with an IgE capture antibody in advance and, after stirring, the mixture is left standing at room temperature for 60 min. The mixture is washed three times with wash, HRP-labeled OVA is added, and the mixture is left standing at room temperature for 30 min. The mixture is washed three times with wash, a substrate solution is added, and the mixture is left standing in dark at room temperature for 30 min. A reaction quenching liquid is added, the mixture is stirred, and the absorbance (OD Value=450 nm) is immediately measured.
The standard used is one attached to the kit, the standard curve is drawn from the measured OD Value, and the concentration is calculated. […]

[3] = tested on: anti-OVA-specific IgG2a subclass antibody; test: Adjuvant activity test: anti-OVA-specific IgG2a subclass antibody in serum of OVA-immunized mice (ELISA); settings: after secondary immunization, serum 2 weeks later; OVA 5 μg + compound 0.256 μmol in 5% αCD-added saline (Addavax mixed with saline at 1:1), dorsal-subcutaneous; compared to OVA single administration group
Description: as §1, §2, §3

`CCCCCCCCCCCCCCCCCC(=O)N[C@@H](CCCNC(=N)N)C(=O)NCCCCCCCCCCCC.Cl` [SZ137, N-[(1S)-1-(dodecylcarbamoyl)-4-guanidino-butyl]octadecanamide hydrochloride] was tested, and the “anti-OVA-specific IgG1 subclass antibody production” value [1] was “significantly increased”, the “anti-OVA-specific IgE antibody production” value ([2]; after secondary immunization, OVA 5 μg + compound 0.256 μmol in 5% αCD-added saline (Addavax mixed with saline at 1:1), dorsal-subcutaneous, compared to OVA single administration group) was “an increase in the anti-OVA-specific IgE antibody production was not observed” and the “allergy inducing activity as compared to Addavax” value ([2]; conclusion from IgE after secondary immunization, compound in 5% αCD-added saline) was “may have a lower allergy inducing activity”. For the same molecule, the “anti-OVA-specific IgG2a subclass antibody production” value [3] was “significantly increased”.
